Measurements from patent US20040023884A1, “Biologically active peptides from functional domains of bactericidal/permeability-increasing protein and uses thereof” (priority 1993, published 2004).
Square brackets hold non-standard residues; d marks the D form. Ends that are not written are not given here. 1Nal = N[C@@H](Cc1cccc2ccccc12)C(=O)O

What was measured:
[1] = test system: E. coli 0111:B4 (smooth) bacteria; assay: Radial diffusion bactericidal assay, E. coli 0111:B4; type: cell-based; conditions: radial diffusion; for pmol added to well to achieve a 30 mm^2 bactericidal zone, E. coli O111:B4: PROBIT analysis, E. coli O111:B4 (smooth); for bactericidal activity (in words): E. coli 0111:B4
[2] = test system: rough mutant E. coli J5 bacteria; assay: Radial diffusion bactericidal assay, E. coli J5; type: cell-based; conditions: radial diffusion; for pmol added to well to achieve a 30 mm^2 bactericidal zone, E. coli J5: PROBIT analysis, E. coli J5 (rough); for bactericidal activity (in words): E. coli J5
Method in brief: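 Log-phase bacteria (3 h at 37 °C in tryptic soy broth), washed in 10 mM sodium phosphate pH 7.4, were embedded at 4×10^6 CFU/mL in underlayer agarose. BPI proteolytic fragments (5 or 10 μL) went into 3 mm wells for 3 h at 37 °C, then agarose overlay and overnight 37 °C growth. Clear zones were measured by micrometer.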

[3] = test system: Klebsiella pneumoniae 19645; assay: Radial diffusion bactericidal assay, antibiotic resistant Klebsiella pneumoniae 19645; type: cell-based
Method: (§1) These studies were conducted substantially following the procedures used in Example 2.
In order to test the bactericidal activity of BPI peptides on antibiotic resistant strains of Klebsiella pneumoniae, the multi-resistant clinically isolated strain 19645 was tested as in Example 2 and above. […] This strain was obtained from the Baxter Microscan® library (Sacramento, Calif.). An overnight culture of Klebsiella pneumoniae 19645 and a non-resistant strain (ATCC 29011) were diluted 1:50 into fresh tryptic soy broth and incubated for 3 hours at 37° C. to attain log phase. The overnight cultures were tested as described in Example 2 and part A above.

[4] = test system: Staphylococcus aureus; assay: Radial diffusion bactericidal assay, Staphylococcus aureus; type: cell-based; conditions: radial diffusion; PROBIT analysis; S. aureus
[5] = test system: multi-resistant strain E. coli 19536; assay: Radial diffusion bactericidal assay, multi-antibiotic resistant E. coli 19536; type: cell-based
Method: as §1
In order to test the bactericidal activity of BPI peptides against multi-antibiotic resistant E. coli, a multi-resistant strain E. coli 19536 (ampR 16 μg/mL; ceftazidimeR>16 μg/mL; ceftriazoneR>16 μg/mL) was tested. This strain is a clinical isolate obtained from the Baxter Microscan® library (Sacramento, Calif.). An overnight culture of E. coli 19536 was tested as described in Example 2 and part A above. Test BPI peptides were 2-fold serially diluted in D-PBS starting at about 1 mg/mL.

[6] = 3H-heparin binding assay (affinity and capacity); conditions: for Heparin Capacity: heparin bound at saturation; for Kd: read-out: Heparin Affinity
Method in brief: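 Bound 3H-heparin was counted by liquid scintillation after 1 h incubation at 4 °C with fragments immobilised on PVDF-bottomed wells, then washing in blocking buffer. Signal was corrected for BSA-related background, and varying amounts of rBPI23 were used as positive control.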

[7] = test system: RAW 264.7 cells; assay: LPS neutralization cellular proliferation assay, RAW 264.7 cells; type: cell-based, mouse
Method in brief: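 Mouse RAW 264.7 cells were primed 24 h with 50U/mL mouse γ-interferon, then exposed about 15 h to E. coli O113 LPS in serum-free RPMI with or without BPI peptides at 25 ng/mL–50 μg/mL. Proliferation was quantified by [^3H]-thymidine uptake, 1 μCi/well, added at 5 h.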

[8] = test system: C. albicans; assay: Radial diffusion fungicidal assay, Candida albicans; type: cell-based; conditions: radial diffusion
[9] = test system: E. coli J5 (rough); assay: Broth antibacterial assay, E. coli J5; type: cell-based
Method: (§2) In additional experiments, broth antibacterial assays were conducted to further determine the bactericidal activity of certain of the BPI peptides. Specifically, either E. coli J5 (rough) or E. coli 0111:B4 (smooth) bacteria were selected from single colonies on agar plates and used to inoculate 5 mL of Mueller Hinton broth and incubated overnight at 37° C. with shaking. The overnight culture was diluted (˜1:50) into 5 mL fresh broth and incubated at 37° C. to log phase (˜3 hours). Bacteria were pelleted for 5 minutes at 3000 rpm (1500×g). Bacterial pellets were resuspended in 5 mL PBS and diluted to 2×10^6 cells/mL in the Mueller Hinton broth (wherein 1 OD570 unit equals 1.25×10^9 CFU/mL). The BPI functional domain peptides to be tested were diluted to 200 μg/mL in broth and serially diluted 2-fold in 96 well culture plates (100 μL volume). All items were at 2-fold final concentration and experiments were conducted in triplicate. Bacteria were added at 100 μL/well and the plates were incubated on a shaker at 37° C. for a 20 hour period. The plates were then read on an ELISA plate multiple reader at 590 nm. One of the triplicate wells from each peptide concentration was selected for colony forming unit (CFU) determination. A 30 μL aliquot was added to 270 μL of PBS and further ten-fold serial dilutions were performed. Then a 50 μL aliquot was plated on tryptic soy agar and incubated overnight. Colonies were counted and final bacterial concentrations determined. The results of these assays are depicted in FIGS. 9e (for E. coli J5) and 9f (for E. coli 0111:B4).

[10] = test system: E. coli 0111:B4 (smooth); assay: Broth antibacterial assay, E. coli 0111:B4; type: cell-based
Method: as §2

[11] = LPS binding by tryptophan fluorescence quenching; conditions: for Kd: Stern-Volmer plots
Excerpt: (§3) The naturally-occurring amino acid tryptophan can emit light (i.e., it fluoresces) having a wavelength between 300 and 400 nm after excitation with light having a wavelength of between about 280 nm and 290 nm, preferably 285 nm. The amount of emitted light produced by such fluorescence is known to be affected by the local environment, including pH and buffer conditions, as well as binding interactions between proteins and other molecules. Some BPI functional domain peptides derived from domains II and III contain tryptophan residues, and tryptophan fluorescence was used to assay binding interactions between the BPI functional domain peptides of the invention and LPS or heparin.
(§4) Tryptophan fluorescence of the BPI functional domain peptides of the invention was determined in the presence or absence of LPS or heparin using a SPEX Fluorolog fluorimeter. Samples were excited with 285 nm light using a 0.25 nm slitwidth. Emission wavelengths were scanned between 300-400 nm using a 1.25 nm slitwidth. Data were accumulated as the average of three determinations performed over an approximately 5 min time span. Samples were maintained at 25° C. or 37° C. during the course of the experiments using a circulating water bath. Crab endotoxin binding protein (CEBP), a protein wherein the intrinsic fluorescence of tryptophan residues is affected by binding to LPS, was used as a positive control. (See Wainwright et al., 1990, Cellular and Molecular Aspects of Endotoxin Reactions, Nowotny et al., eds., Elsevier Science Publishing B.V., The Netherlands, pp. 315-325).
(§5) Kd values were determined by Scatchard-type Stern-Volmer plots of the quenching data as the negative inverse of the slope of such plots. Comparing the data for BPI.10, BPI.46 and BPI.47, it is seen that as the Kd decreased (indicating an increase in avidity for LPS), the percent fluorescence quenching increased. The differences between these peptides include replacement of basic and polar amino acid residues with non-polar residues in […] as compared with BPI.10. In contrast, as the Kd of heparin binding decreased, a corresponding increase in the percentage of fluorescence quenching was not detected.

[12] = Heparin binding by tryptophan fluorescence quenching; conditions: for Kd: Stern-Volmer plots
Excerpt: as §3, §4, §5

Substance	pmol added to well to achieve a 30 mm^2 bactericidal zone, E. coli O111:B4 [1]	pmol added to well to achieve a 30 mm^2 bactericidal zone, E. coli J5 [2] [pmol]	bactericidal activity (in words) [3]	pmol added to well to achieve a 30 mm^2 bactericidal zone, S. aureus [4]	bactericidal activity (in words) [5]	Heparin Capacity [6] [ng]	Kd [6] [nM]	EC50 (peptide concentration at which the growth inhibitory effect of LPS was reversed by 50%) [7] [µg/mL]	IC50 (peptide concentration at which RAW cell growth was inhibited by 50%) [7] [µg/mL]	bactericidal activity (in words) [2]	C. albicans: pmol required for 30 mm^2 zone [8] [pmol]	heparin binding capacity (in words) [6]	bactericidal activity (in words) [9]	bactericidal activity (in words) [1]	bactericidal activity (in words) [10]	Quenching LPS [11] [%]	Kd [11] [nM]	Quenching Heparin [12] [%]	Kd [12] [nM]
IKISGKAβ-(1-naphthyl)KAAβ-(1-naphthyl)KRFLK (IKISGK[1Nal]KA[1Nal]KRFLK) [BPI.119]	536.44 pmol	106.70	active against antibiotic resistant Klebsiella	166,163.83 pmol	–	–	–	–	–	–	–	–	–	–	–	–	–	–	–
IKISGKWKAFFRFLK [BPI.88]	540.15 pmol	70.32	–	9,051.04 pmol	activity against multi-antibiotic resistant E. coli	352.8	1630	>50	6.2 ± 7.5	–	–	–	–	–	–	–	–	–	–
IKISGKWKAQKRFLKKSKVGWLIQLFHKK [BPI.63]	511.61 pmol	86.94	active against antibiotic resistant Klebsiella	2,101.84 pmol	activity against multi-antibiotic resistant E. coli	305.1	600	0.08 ± 0.02	7.1 ± 0.02	highly bactericidal	>1006.34	extremely high heparin capacity	–	–	–	–	–	–	–
IKISGKWKAWKRFLKK [BPI.103]	415.19 pmol	165.18	active against antibiotic resistant Klebsiella	4,705.95 pmol	–	–	–	–	–	–	–	–	–	–	–	–	–	–	–
KRFLKKWKAQKRFLK [BPI.9]	5,337.50 pmol	476.60	–	–	–	212.5	1140	–	–	exhibited bactericidal activity	–	–	significant bactericidal activity	exhibited bactericidal activity	significant bactericidal activity	–	–	–	–
KRFLKKWKAQKRFLKKWKAQKRFLK [BPI.10.1]	–	–	–	–	–	–	–	–	–	exhibited bactericidal activity	–	–	significant bactericidal activity	exhibited bactericidal activity	significant bactericidal activity	–	–	–	–
KWKAAARFLKKWKAAARFLKKWKAAARFLK [BPI.69]	244.07 pmol	56.68	active against antibiotic resistant Klebsiella	1,057.56 pmol	activity against multi-antibiotic resistant E. coli	450.8	967	0.11 ± 0.07	2.4 ± 0.3	highly bactericidal	–	extremely high heparin capacity	–	–	–	72	58	42	400
KWKAQKRFLKKWKAAARFLK [BPI.47]	576.74 pmol	97.73	–	41,213.59 pmol	–	576.4	1910	0.9 ± 0.3	9.8 ± 0.1	highly bactericidal	–	extremely high heparin capacity	–	–	–	41	115	47	2200
QKRFLKKWKAQKRFLKKWKAQKRFLK [BPI.10.2]	–	–	–	–	–	–	–	–	–	exhibited bactericidal activity	–	–	significant bactericidal activity	exhibited bactericidal activity	significant bactericidal activity	–	–	–	–
